The term Cmax denotes the peak of the concentration-time curve.

The structures appear in SMILES notation. Where two headings read alike, the source gives them in different places. A value given as a limit tells only on which side of the number the result lay.

One series deals with IL-2 reporter (JAK1/3). The experiment in a line: IL-2 reporter assay in HEK-Blue IL-2 cells. The class given is cell-based. As to conditions: HEK-Blue. On the procedure: IL-2 reporter assay. Seed HEK-Blue™ IL-2 Cells (1-3×10^4 cells/well/[…]) to 96 cell plate with DMEM (10% HFBS+1% PS) and incubate overnight at 5% CO2&37° C. Diluent compounds in DMSO. Three times dilution and 10 doses. Add compounds to cell plate and incubate 1 h at 5% CO2&37° C. Add IL-2 (1 ng/mL) to cell plate and incubate overnight at 5% CO2&37° C. Prepare QUANTI-Blue Solution: add 100 μl of QB reagent and 100 μl of QB buffer to 9800 μl sterile water. Use cell supernatant and QUANTI-Blue solution in proportion of 1 to 10, incubate 2 h at 37° C. Read OD630.
For orientation: Reporter assays use an easily measured gene product as a stand-in for the process of interest.

Series [1] concerns IL-12/IL-18 induced IFN-gamma production. Kind of series: In vivo inhibition of IL-12/IL-18 induced IFN-gamma. To be noted: mice, oral. The protocol:
Biological Example 5. In Vivo Inhibition of IL-12/IL-18 Induced IFN-Gamma
Selected exemplified compounds of the present disclosure (compound Examples 4 and 5) and BMS986165 were dosed orally to female C57BL/6J mice (Charles River). One hour later, 0.05 μg of recombinant rat IL-12 was administered IV. Another hour later following IL-12 administration, 1 μg of recombinant rat IL-18 was administered IV. Three hours later, blood was collected and serum were obtained by centrifugation for analysis of IFNγ by ELISA.

Series [2] relates to IL-23 reporter (JAK2/Tyk2). Kind of series: IL-23 induced STAT3 QUANTI-Blue reporter assay in HEK-Blue IL-23 cells. The class given is cell-based. On the procedure: Biological Example 2. IL-23 Induced STAT3 QUANTI-Blue in HEK-Blue™ IL-23 Cells
HEK-Blue™ IL-23 cells were prepared at 2×10^5 cells/ml for adding 5000 cell/well and incubate plates containing compounds+cells for 1 hour at 37° C. Prepare IL-23 (treatment at final conc. 0.1 ng/mL) during incubation and add 2 ul per well of prepared cytokine in media to appropriate wells. The plate was incubated for overnight at 37° C. The next day, QUANTI-Blue solution was prepared. 18 ul of QUANTI-Blue solution per well was added into a new 384-well clear flat bottom plate, followed by addition of 2 ul of induced and treated HEK-Blue cell supernatant from overnight plate. The plate was incubated at 37° C. for 2 hours and SEAP levels determined.

The nature of the next series: Dog PK. The class given is in vivo, Beagle dogs. On the procedure:
Biological Example 7. Dog PK
Selected exemplified compounds of the present disclosure were also tested in dog for pharmacokinetic studies. The Beagle dogs were fasted overnight with free access to drinking water prior to treatment. All the dosing solutions were freshly prepared prior to dose administration. In intravenous administration animal group were given a single dose of compound at 1 mg·kg-1. Blood for plasma samples were collected at pre-dose, 5, 15, 30 min, 1, 2, 4, 8, 12 and 24 h through vein into tubes anticoagulated with EDTA-K2. In intragastric administration animal group were given a single dose of compound at 5 mg·kg-1. Blood for plasma samples (˜0.5 mL) were collected at pre-dose, 15, 30 min, 1, 2, 4, 8, 12 and 24 h post-dose through vein into tubes anticoagulated with EDTA-K2. Blood samples were inverted several times and were held on wet ice pending centrifugation. The samples were centrifuged (within 20 minutes of collection) in a centrifuge set at 4° C. for 10 minutes at 1500-1600 g to obtain plasma. Plasma samples were transferred and frozen immediately after separation and stored in a freezer set at below −70° C. prior to analysis.

Another series relates to IL-23-induced psoriasis. Kind of series: In vivo mouse psoriasis model induced by human IL-23. To be noted: mice, 7.5, 15 and 30 mg/kg BID oral gavage. The protocol:
Biological Example 6. In Vivo Mouse Psoriasis Model Selected exemplified compounds of the present disclosure were also tested in a mouse psoriasis model induced by human IL-23. Psoriasis was induced in 6-8-week-old C57BL/6J female mice (Charles River) by intradermal injection of recombinant human IL-23 into the left ear. IL-23 injections were administered every other day from day 1 through day 9 of the study. Selected compounds at 7.5, 15, and 30 mg/kg, with 15 mg/kg BMS986165 as positive control were dosed BID by oral gavage, with the first dose given the evening before first IL-23 injection. Ear thickness was measured every other day, prior to the ear injection.

A further series is described as follows: Mouse PK. Type of series: in vivo.
Series [3] has as its system IFNα/β reporter (JAK1/Tyk2). Kind of series: IFN-alpha/beta reporter assay in HEK-Blue IFN-a/b cells. Type of series: cell-based. As to conditions: cellular assay. On the procedure:
IFN-alpha/beta reporter assay. Seed HEK-Blue™ IFN-a/b cells (1-3×10^4 cells/well/[…]) to 96 cell plate with DMEM (10% HFBS+1% PS) and incubate overnight at 5% CO2&37° C. Diluent compounds in DMSO. Three times dilution and 10 doses. Add compounds to cell plate and incubate 1 h at 5% CO2&37° C. Add IFN-alpha/beta (5 U/ml) to cell plate and incubate overnight at 5% CO2&37° C. Prepare QUANTI-Blue Solution: add 100 μl of QB reagent and 100 μl of QB buffer to 9800 μl sterile water. Use cell supernatant and QUANTI-Blue solution in proportion of 1 to 10, incubate 2 h at 37° C. Read OD630.

For another series, the target named is Jak1 JH2 (Homo sapiens (Human), UniProt P23458). Kind of series: Jak1 JH2 HTRF binding. As to conditions: biochemical assay. (TR-FRET usually uses a lanthanide donor and a delayed reading to cut background.)
In the next series the test system is IFNγ reporter (JAK1/2). Kind of series: IFN-γ reporter assay in HEK-Dual IFN-γ cells. Type of series: cell-based. To be noted: cellular assay; read-out: IFNγ reporter assay (JAK1/2) IC50. The protocol:
IFN-γ reporter assay. Seed HEK-Dual™ IFN-γ Cells (1-3×10^4 cells/well/[…]) to 96 cell plate with DMEM (10% HFBS+1% PS) and incubate overnight at 5% CO2&37° C. Diluent compounds in DMSO. Three times dilution and 10 doses. Add compounds to cell plate and incubate 1 h at 5% CO2&37° C. Add IFN-γ (0.1 ng/mL) to cell plate and incubate overnight at 5% CO2&37° C. Prepare QUANTI-Blue Solution: add 100 μl of QB reagent and 100 μl of QB buffer to 9800 μl sterile water. Use cell supernatant and QUANTI-Blue solution in proportion of 1 to 10, incubate 2 h at 37° C. Read OD630.

Sequence of Jak1 JH2 (P23458 583-855): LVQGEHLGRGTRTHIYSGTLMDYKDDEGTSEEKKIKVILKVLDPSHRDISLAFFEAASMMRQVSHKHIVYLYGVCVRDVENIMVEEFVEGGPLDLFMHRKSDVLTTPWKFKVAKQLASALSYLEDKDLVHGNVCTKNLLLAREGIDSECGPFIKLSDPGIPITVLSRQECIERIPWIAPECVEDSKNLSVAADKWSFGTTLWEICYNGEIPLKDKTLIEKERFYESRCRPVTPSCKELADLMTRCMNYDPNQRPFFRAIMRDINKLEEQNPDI

Consider `[2H]C([2H])([2H])NC(=O)c1nnc(NC(=O)C2CC2)cc1Nc1cccc(-n2cnc(C)n2)c1OC` [Example 5, 6-(cyclopropanecarboxamido)-4-((2-methoxy-3-(3-methyl-1H-1,2,4-triazol-1-yl)phenyl)amino)-N-(methyl-d3)pyridazine-3-carboxamide], for which the IC50 was above 10000 nM in the series with IL-2 reporter (JAK1/3) (cellular assay, read-out: IL-2 reporter assay (JAK1/3) IC50); above 10000 nM in the series on IL-2 reporter (JAK1/3) (read-out: IC50 in IL-2 reporter assay (JAK1/3)); 6 nM in series [2] (HEK-Blue IL-23, HEK-Blue IL-23 cells, Table 2, read-out: IL23 reporter assay_IC50); around 6 nM in series [2] (HEK-Blue IL-23, cellular assay, Table 3 and text, read-out: IL-23 reporter assay (JAK2/Tyk2) IC50); 6.1 nM in series [2] (cellular assay, Table 3 and text, read-out: IL-23 reporter assay (JAK2/Tyk2) IC50); around 5 nM in [3] (HEK-Blue). For the same molecule, the IC50 in [3] is 4.6 nM; on Jak1 JH2, 13.2 nM; with IFNγ reporter (JAK1/2) it was above 10000 nM. Further, the “inhibition of IFNγ production (reduction compared to vehicle treated group)” value in [1] (10 mpk) was “greater than 93%”. For the same molecule, the “inhibition of IL-12/IL-18 induced IFNγ production, result in words” value in series [1] (positive control BMS986165) was “efficacy similar to the positive control tested”. In addition, the “pharmacokinetic profile in dog compared to BMS986165, in words” value in “Dog PK” is on record as “superior pharmacokinetic profile in dog compared to BMS986165”. Also, the AUC(0-t) in the series “Dog PK” (beagle, plasma, intravenous, 1 mg/kg single dose, read-out: AUC0-t (IV)) is 6.4 µM·h; in the series “Dog PK” (beagle, plasma, po, intragastric, 5 mg/kg single dose, read-out: AUC0-t (PO)), 47.5 µM·h. This molecule also returned a Cmax in “Dog PK” (beagle, plasma, po, intragastric, 5 mg/kg single dose) of 7.87 µM. The “protection from IL-23-induced psoriasis (ear thickness), result in words” value in the series with IL-23-induced psoriasis is reported as “dose-dependently protect mice from IL-23-induced psoriasis”. The “mouse PK profile compared to BMS986165, in words” value in the series “Mouse PK” was “about the same with BMS986165”.

Source of the values: patent US20240246944A1, “AMINO HETEROARYL COMPOUNDS AND COMPOSITIONS” (Anrui Biomedical Technology (Guangzhou) Co., Ltd., priority 2021, published 2024).
